#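 1) Cells in 96-well plates. 2) Compound, 48 h, 5 concentrations. 3) Linear interpolation between surrounding doses. 4) Unreached endpoint = highest concentration. GI50 is the concentration that inhibits growth by half. Definition used: TGI = concentration required for complete inhibition of growth.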
# How the values were obtained:
# Test in all cases: NCI-60 cell line screen, 48 h
# SF-295 CNS = test system: SF-295 CNS
# SK-MEL-28 melanoma = test system: SK-MEL-28 melanoma
# NCI/ADR-RES ovarian = test system: NCI/ADR-RES ovarian
# A549 NSCLC = test system: A549 NSCLC
# ACHN renal = test system: ACHN renal
# HS 578T breast = test system: HS 578T breast
# KM12 colon = test system: KM12 colon
# T-47D breast = test system: T-47D breast
# 786-0 renal = test system: 786-0 renal
# SK-OV-3 ovarian = test system: SK-OV-3 ovarian
# LOX IMVI melanoma = test system: LOX IMVI melanoma
# TK-10 renal = test system: TK-10 renal
# CAKI-1 renal = test system: CAKI-1 renal
# SNB-75 CNS = test system: SNB-75 CNS
# NCI-H226 lung = test system: NCI-H226 lung
# OVCAR-5 ovarian = test system: OVCAR-5 ovarian
# UACC-62 melanoma = test system: UACC-62 melanoma
# SN12C renal = test system: SN12C renal
# NCI-H522 lung = test system: NCI-H522 lung
# PC-3 prostate = test system: PC-3 prostate
# MDA-MB-231 breast = test system: MDA-MB-231 breast
# HOP-62 NSCLC = test system: HOP-62 NSCLC
# RXF 393 renal = test system: RXF 393 renal
# SF-268 CNS = test system: SF-268 CNS
# BT-549 breast = test system: BT-549 breast
# HT29 colon = test system: HT29 colon
# NCI-H460 lung = test system: NCI-H460 lung
# SF-539 CNS = test system: SF-539 CNS
# HCT-15 colon = test system: HCT-15 colon
# MALME-3M melanoma = test system: MALME-3M melanoma
# MCF7 breast = test system: MCF7 breast
# MDA-MB-435 = test system: MDA-MB-435
# SK-MEL-5 melanoma = test system: SK-MEL-5 melanoma
# HCT-116 colon = test system: HCT-116 colon
# UO-31 renal = test system: UO-31 renal
# U251 CNS = test system: U251 CNS
# COLO 205 colon = test system: COLO 205 colon
# UACC-257 melanoma = test system: UACC-257 melanoma
# M14 melanoma = test system: M14 melanoma
# SW-620 colon = test system: SW-620 colon
# NCI-H23 lung = test system: NCI-H23 lung
# A498 renal = test system: A498 renal
# DU-145 prostate = test system: DU-145 prostate
# HL-60(TB) leukemia = test system: HL-60(TB) leukemia
# OVCAR-4 ovarian = test system: OVCAR-4 ovarian
# HOP-92 NSCLC = test system: HOP-92 NSCLC
# OVCAR-3 ovarian = test system: OVCAR-3 ovarian
# IGROV1 ovarian = test system: IGROV1 ovarian
# HCC-2998 colon = test system: HCC-2998 colon
# SNB-19 CNS = test system: SNB-19 CNS
# EKVX NSCLC = test system: EKVX NSCLC
# MOLT-4 leukemia = test system: MOLT-4 leukemia
# OVCAR-8 ovarian = test system: OVCAR-8 ovarian
# SK-MEL-2 melanoma = test system: SK-MEL-2 melanoma
# SR leukemia = test system: SR leukemia
smiles,measurement,setting,value
C/C=C(/C(=C/C)c1ccc(O)cc1)c1ccc(O)cc1,GI50,SF-295 CNS,2.48 µM
same,TGI,SF-295 CNS,8.11 µM
same,GI50,SK-MEL-28 melanoma,5.71 µM
same,TGI,SK-MEL-28 melanoma,21.1 µM
same,GI50,NCI/ADR-RES ovarian,2.81 µM
same,TGI,NCI/ADR-RES ovarian,9.28 µM
same,GI50,A549 NSCLC,4.04 µM
same,TGI,A549 NSCLC,19 µM
same,GI50,ACHN renal,9.64 µM
same,TGI,ACHN renal,21.4 µM
same,GI50,HS 578T breast,4.3 µM
same,TGI,HS 578T breast,30.2 µM
same,GI50,KM12 colon,3.73 µM
same,TGI,KM12 colon,13.6 µM
same,GI50,T-47D breast,5.11 µM
same,TGI,T-47D breast,21.9 µM
same,GI50,786-0 renal,5.54 µM
same,TGI,786-0 renal,27 µM
same,GI50,SK-OV-3 ovarian,2.54 µM
same,TGI,SK-OV-3 ovarian,8.88 µM
same,GI50,LOX IMVI melanoma,5.51 µM
same,TGI,LOX IMVI melanoma,24.3 µM
same,GI50,TK-10 renal,12.8 µM
same,TGI,TK-10 renal,29.4 µM
same,GI50,CAKI-1 renal,3.42 µM
same,TGI,CAKI-1 renal,16.9 µM
same,GI50,SNB-75 CNS,1.9 µM
same,TGI,SNB-75 CNS,5.34 µM
same,GI50,NCI-H226 lung,9.36 µM
same,TGI,NCI-H226 lung,47 µM
same,GI50,OVCAR-5 ovarian,8.38 µM
same,TGI,OVCAR-5 ovarian,23.2 µM
same,GI50,UACC-62 melanoma,4.86 µM
same,TGI,UACC-62 melanoma,18.7 µM
same,GI50,SN12C renal,5.22 µM
same,TGI,SN12C renal,22.9 µM
same,GI50,NCI-H522 lung,3.63 µM
same,TGI,NCI-H522 lung,16.9 µM
same,GI50,PC-3 prostate,4.51 µM
same,TGI,PC-3 prostate,17.4 µM
same,GI50,MDA-MB-231 breast,4.58 µM
same,TGI,MDA-MB-231 breast,22.2 µM
same,GI50,HOP-62 NSCLC,3.62 µM
same,TGI,HOP-62 NSCLC,16 µM
same,GI50,RXF 393 renal,4.03 µM
same,TGI,RXF 393 renal,17.7 µM
same,GI50,SF-268 CNS,6.32 µM
same,TGI,SF-268 CNS,22.8 µM
same,GI50,BT-549 breast,7.39 µM
same,TGI,BT-549 breast,22.5 µM
same,GI50,HT29 colon,3.71 µM
same,TGI,HT29 colon,12.6 µM
same,GI50,NCI-H460 lung,3.44 µM
same,TGI,NCI-H460 lung,13.2 µM
same,GI50,SF-539 CNS,3.27 µM
same,TGI,SF-539 CNS,13.8 µM
same,GI50,HCT-15 colon,5.47 µM
same,TGI,HCT-15 colon,20.3 µM
same,GI50,MALME-3M melanoma,7.07 µM
same,TGI,MALME-3M melanoma,31 µM
same,GI50,MCF7 breast,7.19 µM
same,TGI,MCF7 breast,26.1 µM
same,GI50,MDA-MB-435,1.19 µM
same,TGI,MDA-MB-435,3.56 µM
same,GI50,SK-MEL-5 melanoma,3.56 µM
same,TGI,SK-MEL-5 melanoma,15.2 µM
same,GI50,HCT-116 colon,4.58 µM
same,TGI,HCT-116 colon,16.2 µM
same,GI50,UO-31 renal,5.34 µM
same,TGI,UO-31 renal,24.9 µM
same,GI50,U251 CNS,3.49 µM
same,TGI,U251 CNS,15.9 µM
same,GI50,COLO 205 colon,3.25 µM
same,TGI,COLO 205 colon,10.5 µM
same,GI50,UACC-257 melanoma,9.4 µM
same,TGI,UACC-257 melanoma,24.8 µM
same,GI50,M14 melanoma,3.33 µM
same,TGI,M14 melanoma,12.5 µM
same,GI50,SW-620 colon,3.85 µM
same,TGI,SW-620 colon,14.9 µM
same,GI50,NCI-H23 lung,5.3 µM
same,TGI,NCI-H23 lung,21.9 µM
same,GI50,A498 renal,6.22 µM
same,TGI,A498 renal,19.3 µM
same,GI50,DU-145 prostate,3.35 µM
same,TGI,DU-145 prostate,10.4 µM
same,GI50,HL-60(TB) leukemia,3.9 µM
same,TGI,HL-60(TB) leukemia,25.1 µM
same,GI50,OVCAR-4 ovarian,8.18 µM
same,TGI,OVCAR-4 ovarian,33.6 µM
same,GI50,HOP-92 NSCLC,3.98 µM
same,TGI,HOP-92 NSCLC,22.7 µM
same,GI50,OVCAR-3 ovarian,2.37 µM
same,TGI,OVCAR-3 ovarian,5.38 µM
same,GI50,IGROV1 ovarian,5.41 µM
same,TGI,IGROV1 ovarian,36.8 µM
same,GI50,HCC-2998 colon,8.64 µM
same,TGI,HCC-2998 colon,24 µM
same,GI50,SNB-19 CNS,4.79 µM
same,TGI,SNB-19 CNS,21 µM
same,GI50,EKVX NSCLC,7.38 µM
same,TGI,EKVX NSCLC,26.7 µM
same,GI50,MOLT-4 leukemia,5.43 µM
same,TGI,MOLT-4 leukemia,24.2 µM
same,GI50,OVCAR-8 ovarian,4.65 µM
same,TGI,OVCAR-8 ovarian,25.4 µM
same,GI50,SK-MEL-2 melanoma,8.4 µM
same,TGI,SK-MEL-2 melanoma,30.7 µM
same,GI50,SR leukemia,4.24 µM
same,TGI,SR leukemia,92.9 µM
